Source: patent US5190929A, “Cyclophosphamide analogs useful as anti-tumor agents” (Research Corporation Technologies, Inc., priority 1988, dated 1993)

Legend:
[1] = system: L1210 murine leukemia cells, cyclophosphamide-sensitive (/0); experiment: In vitro soft agar colony-forming cytotoxicity assay, cyclophosphamide-sensitive L1210 cells; type: cell-based, mouse; parameters: unit not given here; details: L1210 /0 (sensitive); 1-hour exposure, 99% cell kill
Excerpt: (§1) A soft agar colony-forming assay according to the procedure of Chu and Fischer, Biochem. Pharmacol., 17, 753-767 (1968) was used and modified where necessary. Cultured mouse L1210 and P388 sensitive cells were purchased from EG&G Mason Research Institute, Tumor Bank, Worchester, Mass. Cultured cyclophosphamide resistant L1210 and P388 cells were obtained from Dr. Robert Struck of Southern Research Institute, Birmingham, Ala. Typically, the desired cells (2-3×10^6 cells/ml) in exponential growth and suspended in 6.5 ml of Fischer's medium (Gibco Lab., Grand Island, N.Y.) were divided into six groups (1 control and 5 treated groups) containing an equal number of cells in 1 ml. These cells were then treated with varying doses of drug (solution of perhydrooxazine in media or 20% ethanol-water), diluted with media to give a total volume of 10 ml, and incubated for one hour at 37° C. The cells were washed three times with 3 ml of supplemented Fischer's medium (containing 10% horse serum) by centrifuge (800×g), removal of media by suction, and resuspension of the pellet in media (5 ml). A 1-ml portion was used to determine the cell count with a Coulter counter. From the remainder, a 5-ml suspension of cells was prepared at a density of 10^5 cells/ml, and between 10^2 and 10^5 cells were placed on soft agar and incubated at 37° C. Colonies were counted after 10 days. The log of the surviving fraction was plotted vs. drug concentration and from this plot the LC99 was obtained. (By definition, the LC99 value represents the concentration of drug necessary to effect a 99% cell kill.)

[2] = system: L1210 murine leukemia cells, cyclophosphamide-resistant (/CP); experiment: In vitro soft agar colony-forming cytotoxicity assay, cyclophosphamide-resistant L1210 cells; type: cell-based, mouse; parameters: LC99: unit not given here; details: for LC99: L1210 /CP (cyclophosphamide-resistant), 1-hour exposure, 99% cell kill; for RF, resistance factor = ratio of LC99 in resistant/sensitive cells: L1210, 60 min
Excerpt: as §1

[3] = system: P388 murine leukemia cells, cyclophosphamide-sensitive (/0); experiment: In vitro soft agar colony-forming cytotoxicity assay, cyclophosphamide-sensitive P388 cells; type: cell-based, mouse; parameters: unit not given here; details: P388 /0 (sensitive); 1-hour exposure, 99% cell kill
Excerpt: as §1

[4] = system: P388 murine leukemia cells, cyclophosphamide-resistant (/CP); experiment: In vitro soft agar colony-forming cytotoxicity assay, cyclophosphamide-resistant P388 cells; type: cell-based, mouse; parameters: LC99: unit not given here; details: for LC99: P388 /CP (cyclophosphamide-resistant), 1-hour exposure, 99% cell kill; for RF, resistance factor = ratio of LC99 in resistant/sensitive cells: P388, 60 min
Excerpt: as §1

L1210 tumor cells = experiment: In vivo antitumor activity, survival of L1210 bearing mice; parameters: species or system mouse (male B6 D2 F1); details: for Long Term Survivors: experiment terminated on day 30; for response vs control in vivo at 34 µmol/kg / response vs control in vivo at 51 µmol/kg / response vs control in vivo at 68 µmol/kg / response vs control in vivo at 17 µmol/kg: Mus musculus, L1210, ip, read-out: Survival of L1210 bearing mice - % T/C × 100; for response vs control in vivo at 17 µmol/kg: 17 umol/kg; for toxicity compared with the reference activated cyclophosphamide: higher doses
Method: (§2) Typically 4 groups of 10 male B6 D2 F1 mice (Jackson Breeding Lab., Bar Harbor Me) were injected i.p. with 1×10^5 L1210 tumor cells. Twenty four hours after injection three groups were treated (i.p. injection) with varying doses of drug, and the fourth group received the vehicle alone. The mice were observed daily and death dates were recorded. The experiment was terminated on day 30 and median survival time (days) and % T/C (ratio of median survival time of treated group divided by the […] survival time of the control group) was calculated. The drug was delivered using either an isotonic saline solution or a carboxymethyl cellulose suspension depending on the solubility of the drug.

CP-resistant L1210 cells = experiment: In vivo antitumor activity, survival of mice bearing CP-resistant L1210 cells; parameters: species or system mouse (male B6 D2 F1); details: for Survival of L1210 bearing mice - % T/C × 100: CP-resistant L1210, i.p.
Method: as §2

| Compound | LC99 [1] | LC99 [2] | RF, resistance factor = ratio of LC99 in resistant/sensitive cells [2] | LC99 [3] | LC99 [4] | RF, resistance factor = ratio of LC99 in resistant/sensitive cells [4] | response vs control in vivo at 34 µmol/kg (L1210 tumor cells; 34 umol/kg, i.p.) | response vs control in vivo at 51 µmol/kg (L1210 tumor cells; 51 umol/kg, i.p.) | response vs control in vivo at 68 µmol/kg (L1210 tumor cells; 68 umol/kg, i.p.) | response vs control in vivo at 17 µmol/kg (L1210 tumor cells; i.p.) | Long Term Survivors (L1210 tumor cells; 51 umol/kg, i.p.) | Long Term Survivors (L1210 tumor cells; 68 umol/kg, i.p.) | antitumor activity in L1210 leukemic mice (L1210 tumor cells; all doses tested) | toxicity compared with the reference activated cyclophosphamide (L1210 tumor cells) | further results |
| --- | --- | --- | --- | --- | --- | --- | --- | --- | --- | --- | --- | --- | --- | --- | --- |
| CC1CC(OO)NP(=O)(N(CCCl)CCCl)O1 (centres unmarked) [Compound 1, 4-hydroperoxy-6-methylcyclophosphamide] | 32 | 177 | 5.5 | 26 | 69 | 2.7 | 138% | 56% | 50% |  |  |  |  |  | Long Term Survivors (L1210 tumor cells; 34 umol/kg, i.p.): 2/6 |
| CC(C)C1CC(OO)NP(=O)(N(CCCl)CCCl)O1 (centres unmarked) [Compound 2, 4-hydroperoxy-6-isopropylcyclophosphamide] | 105 | 115 | 1.1 | 86 | 61 | 0.7 |  |  |  |  |  |  |  |  |  |
| O=P1(N(CCCl)CCCl)NC(OO)CC(CCc2ccccc2)O1 (centres unmarked) [Compound 3, 4-hydroperoxy-6-phenethylcyclophosphamide] | 11 | 9 | 1.1 | 9 | 5 | 0.6 | 106% | 25% |  |  |  |  |  |  |  |
| O=P1(N(CCCl)CCCl)NC(OO)CC(c2ccccc2)O1 (centres unmarked) [Compound 4, 4-hydroperoxy-6-phenylcyclophosphamide] | 17 | 15 | 0.9 | 11 | 7 | 0.6 | 144% |  |  | 117% |  |  |  |  | Survival of L1210 bearing mice - % T/C × 100 (L1210 tumor cells; 51 umol/kg, i.p.): toxic |
| O=[N+]([O-])c1ccc(C2CC(OO)NP(=O)(N(CCCl)CCCl)O2)cc1 (centres unmarked) [Compound 5, 4-hydroperoxy-6-p-nitrophenylcyclophosphamide] | 8 | 8 | 1.0 | 7 | 3 | 0.4 | 163% | 194% | 225% |  | 2/6 | 4/6 | highly active at all doses tested | less toxic at higher doses than the reference activated cyclophosphamide | Long Term Survivors (L1210 tumor cells; 34 umol/kg, i.p.): 1/6 |
| Cc1ccc(C2CC(OO)NP(=O)(N(CCCl)CCCl)O2)cc1 (centres unmarked) [Compound 6, 4-Hydroperoxy-6-p-tolylcyclophosphamide] | 5 | 6 | 1.2 | 3 | 3 | 1.0 | 150% | 175% | 180% |  | 1/6 | 1/6 | highly active at all doses tested | less toxic at higher doses than the reference activated cyclophosphamide |  |
| O=P1(N(CCCl)CCCl)NC(OO)CC(c2ccc(F)cc2)O1 (centres unmarked) [Compound 7, 4-hydroperoxy-6-p-fluorophenylcyclophosphamide] | 7 | 8 | 1.1 | 6 | 3 | 0.5 | 163% | 188% | 63% |  | 1/6 | 1/6 |  |  | antitumor activity in L1210 leukemic mice (L1210 tumor cells; lower doses tested): highly active at the lower doses tested |
| O=P1(N(CCCl)CCCl)NC(OO)CC(c2cccnc2)O1 (centres unmarked) [Compound 8, 4-hydroxyperoxy-6-(3-pyridyl)cyclophosphamide] | 36 | 56 | 1.6 | 33 | 24 | 0.7 | 131% | 69% | 63% |  |  |  |  |  |  |
| O=P1(N(CCCl)CCCl)NC(OO)CC(c2ccncc2)O1 (centres unmarked) [Compound 9, 4-Hydroperoxy-6-(4-pyridyl)cyclophosphamide] | 53 | 57 | 1.1 | 44 | 27 | 0.6 | 150% | 164% | 193% | 131% |  | 1/6 | highly active at all doses tested | less toxic at higher doses than the reference activated cyclophosphamide | Survival of L1210 bearing mice - % T/C × 100 (CP-resistant L1210 cells; 17 umol/kg): 119%; Survival of L1210 bearing mice - % T/C × 100 (CP-resistant L1210 cells; 34 umol/kg): 131%; Survival of L1210 bearing mice - % T/C × 100 (CP-resistant L1210 cells; 51 umol/kg): 138%; Survival of L1210 bearing mice - % T/C × 100 (CP-resistant L1210 cells; 68 umol/kg): 150%; survival / lifespan of mice bearing cyclophosphamide resistant L1210 leukemia (CP-resistant L1210 cells): prolongs the survival of these mice bearing the drug-resistant leukemia at all doses tested |
| O=P1(N(CCCl)CCCl)NC(OO)CCO1 (centres unmarked) [Ref, reference compound] | 8 | 141 | 17 | 6 | 60 | 10 | 194% | 50% |  | 136% |  |  |  |  | toxicity (CP-resistant L1210 cells; 51 umol/kg dose, mice bearing cyclophosphamide resistant L1210): toxicity is apparent at the 51 umol/kg dose; Survival of L1210 bearing mice - % T/C × 100 (CP-resistant L1210 cells; 17 umol/kg): 112%; Survival of L1210 bearing mice - % T/C × 100 (CP-resistant L1210 cells; 34 umol/kg): 100%; Survival of L1210 bearing mice - % T/C × 100 (CP-resistant L1210 cells; 51 umol/kg): 75%; survival / lifespan of mice bearing cyclophosphamide resistant L1210 leukemia (CP-resistant L1210 cells): no significant increase in lifespan is observed |
